# Assay results taken from paper PMC5681660, “Reduced hepatitis B and D viral entry using clinically applied drugs as novel inhibitors of the bile acid transporter NTCP” (Scientific Reports, 2017).
# “And” between values parts separate entries of the source, which are not always exact repeats. Equal entries are not always repeated.
# Assays:
# [1] = test system: patient-derived HBV (genotype B); test: Serum-derived HBV genotype B infection of HepaRG cells stably transduced with hNTCP; format: cell-based, hepatitis B virus; conditions: NTCP-overexpressing HepaRG cells
# Protocol: Supplementary materials and methods Serum-derived HBV genotype B infection study For these experiments HepaRG cells stably transduced with hNTCP were used. Differentiation and serum-derived HBV genotype B infection were performed following similar protocols as described for wildtype HepaRG cells in the main materials&methods with the following changes: 8 hours infection and supernatant collection for HBeAg and HBsAg analysis from day 9 to 12. Total RNA was extracted from cells 12 days after infection using the NucleoSpin RNA isolation kit (Macherey-Nagel). Reverse transcription was performed with the High-Capacity cDNA Reverse Transcription Kit (Thermo Scientific). mRNA levels were determined by qPCR using the iTaq™ Universal SYBR® Green Supermix (Bio-rad) with HBV specific primers (forward: 5’-[…]-3’; reverse: 5’-[…]-3’). GAPDH mRNA levels were used for normalization (forward: 5’-[…]-3’; reverse: 5’-[…]-3’). Total DNA was extracted from cells 12 days after infection using the NucleoSpin Tissue kit (Macherey-Nagel). HBV DNA levels were determined by qPCR PerfeCTa qPCR Toughmix (Quanta Biosciences) with HBV specific primers (forward: 5’- […]-3’; reverse: 5’- […]-3’) and a probe (5’-TxRed-[…]-BHQ2-3’). β-globin levels were used for normalization (forward: 5’- […]-3’; reverse: 5’- […]-3’; probe: 5’-HEX- […]-BHQ1-3’). […]
# in vitro [2] = conditions: human, U2OS-HA-hNTCP cells
# human NTCP = target: T1, human NTCP (Homo sapiens, UniProt Q14973); test: Myrcludex B-FITC binding by confocal microscopy in U2OS-HA-hNTCP cells; set-up: HA; expressed in transfected cells
# T1 sequence (Q14973 1-349): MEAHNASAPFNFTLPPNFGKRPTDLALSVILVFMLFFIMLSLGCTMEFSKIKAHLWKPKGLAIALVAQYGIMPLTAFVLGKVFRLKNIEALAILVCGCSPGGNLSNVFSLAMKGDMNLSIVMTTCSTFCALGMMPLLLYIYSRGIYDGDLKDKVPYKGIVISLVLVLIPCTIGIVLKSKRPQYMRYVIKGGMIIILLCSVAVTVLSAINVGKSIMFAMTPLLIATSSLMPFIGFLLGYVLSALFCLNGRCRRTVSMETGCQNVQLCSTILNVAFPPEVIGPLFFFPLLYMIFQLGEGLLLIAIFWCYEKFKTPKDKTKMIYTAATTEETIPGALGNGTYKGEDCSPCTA
# Protocol: After 24 hours, medium was aspirated and cells were washed once with 300 µl Leibovitz’s L-15 Medium (Invitrogen). A 30 minute incubation period followed in which all cells were incubated with 0.2 µM Myrcludex B-FITC with or without drug (1, 10, 100 µM) and Hoechst (1/1000) in 300 µL Leibovitz’s L-15 Medium. Cells were washed twice with Leibovitz’s L-15 Medium and subsequently 400 µL Leibovitz’s L-15 Medium was added. Live cell fluorescent imaging was performed using a Leica SP8X-SMD confocal microscope with fully enclosed incubation at 37 °C. A 63x oil objective was used and images were captured while the cells were consecutively excited at 490 nm (FITC) 350 nm (Hoechst). ImageJ software (National Insititutes of Health, Bethesda, MD) was employed for data analysis.
# mouse NTCP = target: T2, mouse NTCP (Mus musculus, UniProt O08705); test: Taurocholate uptake in U2OS cells transiently transfected with mouse NTCP; format: cell-based; conditions: at the calculated IC50 value for hNTCP
# T2 construct: expressed in transfected cells; host or cells: U2OS (transient transfection, PEI)
# T2 sequence (O08705 1-362): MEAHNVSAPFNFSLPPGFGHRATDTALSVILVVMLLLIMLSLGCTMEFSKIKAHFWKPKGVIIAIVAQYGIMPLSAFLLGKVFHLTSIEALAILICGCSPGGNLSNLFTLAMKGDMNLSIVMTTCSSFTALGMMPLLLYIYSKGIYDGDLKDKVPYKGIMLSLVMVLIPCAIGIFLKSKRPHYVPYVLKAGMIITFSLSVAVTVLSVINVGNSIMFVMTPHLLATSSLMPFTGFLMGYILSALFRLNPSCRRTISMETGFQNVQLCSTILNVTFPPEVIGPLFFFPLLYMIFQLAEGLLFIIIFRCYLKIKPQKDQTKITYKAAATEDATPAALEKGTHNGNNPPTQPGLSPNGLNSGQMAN
# Protocol: U2OS and MDCK cells were grown in Dulbecco’s modified Eagle’s medium (DMEM, Sigma-Aldrich), supplemented with 10% FCS (Gibco), 1% L-glutamine (Lonza), and 1% penicillin/streptomycin (Lonza). […] Transient transfection of U2OS cells with mouse NTCP (mNTCP) was done with PEI reagent (Brunschwig, Basel, Switzerland). Shortly, U2OS cells were seeded one day prior to transfection in 24-well plates. On the day of transfection, 0.5 µg DNA was mixed with 100 µl unsupplemented DMEM and 3 µg/µl PEI. After 10–15 minute incubation at RT, 20 µl of the transfection mix was added to each 24-well. Transfected cells were used in further experiments 48–72 hours later. Cell lines were passaged twice a week at a confluence of 80%, and incubated in a humidified atmosphere of 37 °C + 5% CO2.
# For MDCK or MDCK-hASBT cells 70.000 cells/well were plated in 24-well plates, followed by 24 hours 10 mM sodium butyrate (Sigma-Aldrich) stimulation the next day. Cells were used in the inhibition studies 24 hours (U2OS cell lines) or 48 hours (MDCK cell lines) later. Inhibition studies with mNTCP transiently transfected cells were conducted 48–72 hours after transfection.
# Medium was aspirated from the wells and cells were washed once with 250 µL uptake buffer. Subsequently, cells were pre-incubated with drug in 150 µL uptake buffer for 10 minutes at 37 °C. Taurocholate uptake was initiated by addition of 100 µL uptake buffer containing taurocholate (final concentration 10 µM TC spiked with tritium-labeled TC) and cells were incubated for 2 minutes at 37 °C. Subsequently, cells were washed 4 times with ice-cold PBS and lysed with 0.05% SDS in water. Radioactivity was measured by liquid scintillation counting.
# in vitro [3] = conditions: human
# [4] = sulfasalazine 1 gram; ref 5 (supplement); cited from earlier work
smiles,measurement,setting,value
O=C(O)c1cc(/N=N/c2ccc(S(=O)(=O)Nc3ccccn3)cc2)ccc1O [Sulfasalazine],"HBeAg, HBsAg, HBV DNA and HBV RNA after serum-derived HBV infection",[1],"reduced HBeAg, HBsAg, HBV DNA, and HBV RNA in a dose-dependent fashion"
same,"HBeAg, HBsAg, HBV DNA and HBV RNA after serum-derived HBV infection",[1]; listed as sulfasalazine,reduced by sulfasalazine in a dose-dependent fashion
same,"viability at 2 h, 1 µM",in vitro [2],98.1 ± 3%
same,"viability at 2 h, 10 µM",in vitro [2],90.6 ± 6.9%
same,"viability at 2 h, 100 µM",in vitro [2],85 ± 9.1%
same,Myrcludex B-FITC fluorescence / binding to U2OS-HA-hNTCP cells (in words),human NTCP; co-administration with increasing amounts of drug,reduced
same,≥50% loss of Myrcludex B binding to hNTCP (concentration),"human NTCP; confocal microscopy, 0.2 µM Myrcludex B-FITC, drug 1, 10, 100 µM, concentration at which binding inhibited minimally 50%",≥1 µM
same,inhibition of mouse Ntcp-mediated taurocholate uptake compared with human NTCP,mouse NTCP,inhibited similarly as human NTCP
same,"viability at 2 h, 1 µM",in vitro [3],100 ± 6.9%
same,"viability at 2 h, 10 µM",in vitro [3],101 ± 8.4%
same,"viability at 2 h, 100 µM",in vitro [3],97.8 ± 8%
same,Expected serum concentration,[4],6 µg/ml and ~15 µM
